These results are taken from ChEMBL document CHEMBL4219198, “Peptidomimetic nitrile inhibitors of malarial protease falcipain-2 with high selectivity against human cathepsins” (Bioorg Med Chem Lett, 2018).

Some results are limits rather than exact numbers.

One data set concerns the target T1, Falcipain 2 (Plasmodium falciparum, UniProt Q9N6S8).
T1 sequence (Q9N6S8 whole entry): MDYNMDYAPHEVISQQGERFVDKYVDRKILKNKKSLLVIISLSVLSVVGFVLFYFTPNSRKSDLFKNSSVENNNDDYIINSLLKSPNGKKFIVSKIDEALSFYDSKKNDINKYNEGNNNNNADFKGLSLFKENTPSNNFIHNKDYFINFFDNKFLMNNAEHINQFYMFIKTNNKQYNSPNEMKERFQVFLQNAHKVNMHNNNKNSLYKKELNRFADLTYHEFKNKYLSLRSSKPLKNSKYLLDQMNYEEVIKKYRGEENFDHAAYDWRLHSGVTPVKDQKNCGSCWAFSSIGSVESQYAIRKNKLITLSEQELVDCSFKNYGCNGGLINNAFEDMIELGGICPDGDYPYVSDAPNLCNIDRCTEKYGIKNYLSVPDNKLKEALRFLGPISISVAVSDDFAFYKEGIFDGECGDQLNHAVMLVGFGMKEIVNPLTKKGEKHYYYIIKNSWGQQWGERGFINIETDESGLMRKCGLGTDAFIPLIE
Nature of the data set: Inhibition of Plasmodium falciparum falcipain-2.

The next data set addresses Cathepsin B (Homo sapiens, UniProt P07858). Nature of the data set: Inhibition of human cathepsin B.
Another data set concerns the target T2, Cathepsin K (Homo sapiens, UniProt P43235).
T2 sequence (P43235 whole entry): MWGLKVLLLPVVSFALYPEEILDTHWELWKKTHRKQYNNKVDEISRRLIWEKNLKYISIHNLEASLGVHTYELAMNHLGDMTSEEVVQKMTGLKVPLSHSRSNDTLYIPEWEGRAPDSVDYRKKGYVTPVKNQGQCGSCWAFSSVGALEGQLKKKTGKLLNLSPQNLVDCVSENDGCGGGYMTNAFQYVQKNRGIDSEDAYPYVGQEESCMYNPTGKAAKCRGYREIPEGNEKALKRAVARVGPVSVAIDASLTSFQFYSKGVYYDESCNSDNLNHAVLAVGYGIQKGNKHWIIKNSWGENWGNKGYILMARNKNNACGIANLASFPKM
Nature of the data set: Inhibition of human cathepsin K.

The next data set concerns the target Procathepsin L (Homo sapiens, UniProt P07711). Description: Inhibition of human cathepsin L.
In another data set the target is Cathepsin S (Homo sapiens, UniProt P25774). Description: Inhibition of human cathepsin S.
Another data set deals with Plasmodium falciparum. Description: Antimalarial activity against Plasmodium falciparum infected in human erythrocytes. It counts as functional, organism-based.
The nature of data set [1]: Selectivity ratio of IC50 for human cathepsin B to IC50 for Plasmodium falciparum falcipain-2.
A short description of data set [2]: Selectivity ratio of IC50 for human cathepsin K to IC50 for Plasmodium falciparum falcipain-2.
Data set [3] can be described thus: Selectivity ratio of IC50 for human cathepsin L to IC50 for Plasmodium falciparum falcipain-2.
Data set [4] is described as follows: Selectivity ratio of IC50 for human cathepsin S to IC50 for Plasmodium falciparum falcipain-2.
A short description of data set [5]: Cytotoxicity against human HeLa cells assessed as reduction in cell viability. The data set is classed as cell-based.
Data set [6] in a line: Cytotoxicity against HUVEC assessed as reduction in cell viability. The data set is classed as cell-based. Particulars: human, HUVEC cells.

Sequence of Cathepsin S (P25774 whole entry): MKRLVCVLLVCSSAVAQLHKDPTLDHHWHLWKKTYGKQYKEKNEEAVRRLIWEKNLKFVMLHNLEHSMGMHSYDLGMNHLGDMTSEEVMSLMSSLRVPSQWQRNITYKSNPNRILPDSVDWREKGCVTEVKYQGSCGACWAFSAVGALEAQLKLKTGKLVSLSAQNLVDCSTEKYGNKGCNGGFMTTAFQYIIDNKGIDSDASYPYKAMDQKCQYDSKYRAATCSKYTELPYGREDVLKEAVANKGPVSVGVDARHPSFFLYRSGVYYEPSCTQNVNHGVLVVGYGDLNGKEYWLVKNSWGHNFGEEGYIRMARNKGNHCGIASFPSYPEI
Sequence of Procathepsin L (P07711 whole entry): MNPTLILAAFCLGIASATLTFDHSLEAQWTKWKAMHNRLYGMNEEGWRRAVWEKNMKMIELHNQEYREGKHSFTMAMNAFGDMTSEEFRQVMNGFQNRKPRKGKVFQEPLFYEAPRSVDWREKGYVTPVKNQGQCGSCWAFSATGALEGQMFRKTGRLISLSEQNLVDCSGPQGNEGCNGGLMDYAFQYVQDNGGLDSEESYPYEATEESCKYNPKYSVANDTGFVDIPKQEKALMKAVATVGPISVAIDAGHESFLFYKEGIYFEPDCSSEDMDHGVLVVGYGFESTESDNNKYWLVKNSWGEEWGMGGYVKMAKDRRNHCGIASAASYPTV

The term IC50 denotes the midpoint of a concentration-inhibition curve. Read a high IC50 as weaker potency. What is called EC50 is the concentration giving half of the maximal effect. Lower therefore signals a more potent agent. With `CC(C)CN(NC(=O)c1ccc(CN2CCN(C)CC2)cc1)c1nc(C#N)ncc1Br`, the IC50 against Falcipain 2 is 0.6 nM; on Cathepsin B it was 987 nM; at Cathepsin K, 0.2 nM; against Procathepsin L, 0.7 nM; against Cathepsin S it was 30 nM. This compound yielded an EC50 in the data set with Plasmodium falciparum of 61 nM.
For `CN(C)c1ccc(C[C@H](NC(=O)c2ccc(-c3ccccc3)cc2)C(=O)NC2(C#N)CC2)cc1`, the 50% inhibitory concentration (IC50) is greater than 5000 nM against Falcipain 2, 715 nM against Cathepsin B, greater than 5000 nM on Cathepsin K and greater than 5000 nM at Procathepsin L.
As for `N#CC1(NC(=O)[C@H](CCCCN)NC(=O)c2ccc(-c3ccccc3)cc2)CC1`, the IC50 is greater than 5000 nM on Falcipain 2; 1270 nM against Cathepsin B; greater than 5000 nM on Cathepsin K; greater than 5000 nM against Procathepsin L; greater than 5000 nM against Cathepsin S.
One may read the CC50 as the concentration at which the toxic effect on the cells reaches its halfway point. The compound `CN1CCN(Cc2ccc(-c3cncc(C(=O)N[C@@H](Cc4cccnc4)C(=O)NC4(C#N)CC4)c3)cc2)CC1` gave an IC50 at Falcipain 2 of 2.4 nM. Moreover, the Ratio IC50 was greater than 2080 in data set [1], greater than 2080 in [2], 45 in [3] and 552 in [4]. In the data set on Plasmodium falciparum, this compound had an EC50 of 2000 nM. The CC50 in [5] and in [6] was greater than 16000 nM throughout.
Regarding `Cn1nc(C(F)(F)F)cc1-c1ccc(C(=O)N[C@@H](Cc2cccnc2)C(=O)NC2(C#N)CC2)s1`, the IC50 on Falcipain 2 is 2.2 nM. In addition, the Ratio IC50 in data set [1] is greater than 2270; in data set [2] it was 212; in [3], 1240; in data set [4], 30.
Turning to `CN1CCCC(c2cccc(C(=O)N[C@@H](Cc3cccnc3)C(=O)NC3(C#N)CC3)c2)C1` (stereo not given in full), half-maximal inhibition against Falcipain 2 (IC50) required 8.6 nM. The Ratio IC50 is greater than 581 in data set [1], 170 in data set [2], 61 in data set [3] and 202 in [4].
Turning to `N#CC1(NC(=O)C(Cc2ccc(Cl)nc2)NC(=O)c2ccc(-c3ccccc3)cc2)CC1` (stereo not given), the IC50 at Falcipain 2 was 230 nM; against Cathepsin B it was greater than 5000 nM; on Cathepsin K, greater than 5000 nM; against Procathepsin L, 4280 nM; against Cathepsin S it was 190 nM.
As for `N#CC1(NC(=O)[C@H](Cc2ccccn2)NC(=O)c2ccc(-c3ccccc3)cc2)CC1`, the IC50 at Falcipain 2 was greater than 5000 nM; against Cathepsin B, greater than 5000 nM; at Cathepsin K it was 3830 nM; against Procathepsin L, greater than 5000 nM; against Cathepsin S, greater than 5000 nM.
For the compound `N#CC1(NC(=O)[C@@H](Cc2cccnc2)NC(=O)c2ccc(-c3ccccc3)cc2)CC1`, the IC50 on Falcipain 2 was greater than 5000 nM; on Cathepsin B, greater than 50000 nM; on Cathepsin K, greater than 5000 nM; against Procathepsin L it was greater than 5000 nM; against Cathepsin S, greater than 5000 nM.
In the case of `COc1ccc(CC(NC(=O)c2ccc(-c3ccccc3)cc2)C(=O)NC2(C#N)CC2)cn1` (stereo not given), the IC50 against Falcipain 2 is 178 nM; against Cathepsin B, 4080 nM; on Cathepsin K, greater than 5000 nM; at Procathepsin L, 2630 nM; on Cathepsin S, 195 nM.
`N#CC1(NC(=O)[C@H](Cc2cccnc2)NC(=O)c2cccc(-c3ncc[nH]3)c2)CC1` displayed an IC50 against Falcipain 2 of 2.7 nM. In addition, the Ratio IC50 was greater than 1850 in data set [1], 718 in [2], 128 in [3] and 76 in [4]. Further, the concentration giving a half-maximal response (EC50) with Plasmodium falciparum stood at 2000 nM. Further, the CC50 in data set [5] and in data set [6] was greater than 16000 nM in each case.
On Falcipain 2, `CN1CCN(Cc2ccc(C(=O)N[C@@H](Cc3cccnc3)C(=O)NC3(C#N)CCS(=O)(=O)CC3)s2)CC1` returned an IC50 of 55.4 nM. Moreover, the Ratio IC50 is greater than 90 in data set [1], 34 in data set [2], 6 in data set [3] and 7 in data set [4].
`N#CC1(NC(=O)[C@H](CCCCCN)NC(=O)c2ccc(-c3ccccc3)cc2)CC1` showed an IC50 on Falcipain 2 greater than 5000 nM.
Take `N#CC1(NC(=O)[C@H](Cc2ccccc2)NC(=O)c2ccc(-c3ccccc3)cc2)CC1`: the IC50 on Falcipain 2 came out at 667 nM; against Cathepsin B it was 2210 nM; at Cathepsin K, 213 nM; at Procathepsin L, 635 nM; at Cathepsin S, 283 nM.
`CC(C)C[C@H](NC(=O)c1ccc(-c2ccccc2)cc1)C(=O)NC1(C#N)CCS(=O)(=O)CC1`: the IC50 at Falcipain 2 came to 8 nM; against Cathepsin B, 2500 nM; at Cathepsin K, 0.11 nM; against Procathepsin L, 99 nM; against Cathepsin S it was 1.1 nM. Further, the EC50 with Plasmodium falciparum is greater than 25000 nM.
`Cn1nc(C(F)(F)F)cc1-c1ccc(C(=O)N[C@@H](Cc2cccnc2)C(=O)NC2(C#N)CCS(=O)(=O)CC2)s1` had an IC50 on Falcipain 2 of 6.3 nM. Besides, the Ratio IC50 was greater than 793 in data set [1], 107 in data set [2], 679 in data set [3] and 9 in data set [4].
With `N#CC1(NC(=O)[C@H](Cc2ccncc2)NC(=O)c2ccc(-c3ccccc3)cc2)CC1`, the IC50 at Falcipain 2 is greater than 5000 nM; on Cathepsin B, greater than 5000 nM; against Cathepsin K, 867 nM; against Procathepsin L it was 755 nM; against Cathepsin S, 710 nM.
For the compound `N#CC1(NC(=O)[C@H](Cc2cscn2)NC(=O)c2ccc(-c3ccccc3)cc2)CC1`, the IC50 against Falcipain 2 was 137 nM; against Cathepsin B, 2370 nM; on Cathepsin K, 435 nM; against Procathepsin L, greater than 5000 nM; against Cathepsin S it was 2370 nM.
On to `CN1CCN(C(=O)C[C@H](NC(=O)c2ccc(-c3ccccc3)cc2)C(=O)NC2(C#N)CC2)CC1`, for which the IC50 against Falcipain 2, against Cathepsin B, against Cathepsin K, at Procathepsin L and on Cathepsin S was greater than 5000 nM in each case.
For the compound `N#CC1(NC(=O)[C@H](Cc2ccc(O[C@@H]3CCNC3)cc2)NC(=O)c2ccc(-c3ccccc3)cc2)CC1`, the IC50 on Falcipain 2 was 1590 nM; at Cathepsin B, 2240 nM; against Cathepsin K, 2690 nM; against Procathepsin L, 300 nM; against Cathepsin S, 3580 nM.
Compound `CN1CCN(Cc2ccc(C(=O)N[C@@H](Cc3cccnc3)C(=O)NC3(C#N)CC3)s2)CC1` registered an IC50 against Falcipain 2 of 25.9 nM. In addition, the Ratio IC50 in data set [1] is greater than 192; in data set [2], 34; in [3] it was 14; in data set [4], 32.
In the case of `CC(C)C[C@H](NC(=O)c1ccc(CN2CCN(C)CC2)cc1)C(=O)NC1(C#N)CCS(=O)(=O)CC1`, the IC50 on Falcipain 2 was found to be 57 nM; against Cathepsin B, 2320 nM; against Cathepsin K, 1 nM; against Procathepsin L, 4 nM; against Cathepsin S, 1 nM. The EC50 with Plasmodium falciparum was determined as 2700 nM.
At Falcipain 2, `CS(=O)(=O)c1cccc(-c2cccc(C(=O)N[C@@H](Cc3cccnc3)C(=O)NC3(C#N)CC3)c2)c1` had an IC50 of 8.2 nM. The Ratio IC50 in data set [1] is greater than 610; in data set [2], 180; in [3], 302; in [4] it was 26.
Turning to `CC(C)C[C@H](NC(=O)c1ccc(-c2ccccc2)cc1)C(=O)NC1(C#N)CC1`, the IC50 came out at 27 nM against Falcipain 2; 1720 nM against Cathepsin B; 1.3 nM at Cathepsin K; 492 nM on Procathepsin L; 85 nM at Cathepsin S.
On the same counts, the results for `N#CC1(NC(=O)[C@H](Cc2c[nH]c3ccc(O)cc23)NC(=O)c2ccc(-c3ccccc3)cc2)CC1` are 192 nM, 1100 nM, 1870 nM, 494 nM and 253 nM.
`N#CC1(NC(=O)[C@H](Cc2cccnc2)NC(=O)c2cccc(-c3cn[nH]c3)c2)CC1` came in with an IC50 at Falcipain 2 of 1.2 nM. The Ratio IC50 was greater than 4170 in data set [1], 2350 in [2], 349 in data set [3] and 42 in data set [4]. In the data set on Plasmodium falciparum, this compound returned an EC50 of 2000 nM. Besides, the CC50 in data set [5] and in data set [6] was greater than 16000 nM throughout.
`N#CC1(NC(=O)[C@H](Cc2nc3ccccc3s2)NC(=O)c2ccc(-c3ccccc3)cc2)CC1`: the IC50 at Falcipain 2 was greater than 5000 nM; against Cathepsin B it was greater than 5000 nM; at Cathepsin K, greater than 5000 nM; at Procathepsin L, 334 nM; against Cathepsin S, 18 nM.
Turning to `N#CC1(NC(=O)[C@H](Cc2cccnc2)NC(=O)c2cccc(-n3cnnn3)c2)CC1`, the IC50 on Falcipain 2 was determined as 3 nM. Also, the Ratio IC50 in [1] is greater than 1670; in data set [2], 1360; in data set [3] it was 574; in data set [4] it was 35. The compound further registered a concentration giving a half-maximal response (EC50) in the data set on Plasmodium falciparum of 2000 nM. Moreover, the CC50 in data set [5] and in data set [6] was greater than 16000 nM throughout.
